# “Also recorded” adds a separate entry of the source.
# Assays:
# CHO-MG* cells = assay: Cytotoxicity (MTS cell growth) in CHO-MG* cells; assay type: cell-based, Chinese hamster; conditions: for IC50: 48 h at 37° C., 1 mM AG 24 h prior to drug addition, triplicate
# Description: (§1) CHO cells were chosen along with a mutant cell line (CHO-MG*) to comment on how the synthetic conjugates gain access to the cells.^2c-e, 6 As discussed earlier, the CHO-MG* cell line is polyamine-transport deficient and represents a model for alternative modes of entry (other than PTS) including passive diffusion or use of another transporter. The CHO cell line on the other hand, represents cells with high polyamine transport activity.^7b, 10c A comparison of toxicity in these two CHO cell lines allowed for a screen that would detect selective use of the polyamine transporter. High utilization of the PTS would be very toxic to CHO cells. However, the CHO-MG* cells should be less sensitive to drugs which target the PTS.^2c-e, 6 Ultimately, a CHO-MG*/CHO IC50 ratio was determined to assess PTS selectivity. A high IC50 ratio (>>2) would be observed for PTS selective compounds.
# (§2) CHO and CHO-MG* cells were grown in RPMI 1640 medium supplemented with 10% fetal calf serum and 1% penicillin/streptomycin. Note: the media must contain L-proline (2 μg/mL) for proper growth of the CHO-MG* cells. L3.6p1 cells were grown in RPMI 1640 medium supplemented with 10% FBS and 1% penicillin/streptomycin. All cells were grown at 37° C. under a humidified 5% CO2 atmosphere Aminoguanidine (1 mM for CHO and CHO-MG*, and 250 μM for L3.6p1) was added to the growth medium to prevent oxidation of the drugs by the enzyme (bovine serum amine oxidase) present in calf serum. Cells in early to mid-log phase growth were used.
# (§3) Cell growth was assayed in sterile 96-well microtiter plates (Costar 3599, Corning, N.Y., USA). CHO and CHO-MG* cells were plated at 10,000 cells/mL. L3.6p1 cells were plated at 5,000 cells/mL. Drug solutions (10 μL per well) of appropriate concentration were added after an overnight incubation for each CHO cell line (90 μL of cell suspension). After exposure to the drug for 48 h, cell growth was determined by measuring formazan formation from 3-(4,5-dimethylthiazol-2-yl)-5-(3-carboxymethoxyphenyl)-2-(4-sulphenyl)-2H-tetrazolium, inner salt (MTS) using a SynergyMx BioTek microplate reader for absorbance ([…]) measurements.^23 A 4 h incubation period was used for the MTS assay in accordance with the manufacturer's protocol.^23
# CHO cells = assay: Cytotoxicity (MTS cell growth) in CHO cells; assay type: cell-based, Chinese hamster; conditions: 48 h at 37° C., 1 mM AG 24 h prior to drug addition, triplicate
# Description: as §1, §2, §3
# L3.6pl cells [1] = assay: Cytotoxicity IC50 and MTD determination in L3.6pl cells; assay type: cell-based; conditions: for IC50 / L3.6pl MTD: 48 h at 37° C.; for IC50: 250 μM AG 24 h prior to drug addition; for L3.6pl MTD: maximum tolerated dose, 250 μM AG; for MTD higher than 0.6 μM (MTD of 44a): relative to parent 44a
# Protocol: The MTD (Maximum tolerated dose) was determined for each of these compounds (Table III-2).
# Note: the media must contain L-proline (2 μg/mL) for proper growth of the CHO-MG* cells. […] Cells in early to mid-log phase growth were used.
# CHO and CHO-MG* cells were plated at 10,000 cells/mL. L3.6p1 cells were plated at 5,000 cells/mL. Drug solutions (10 μL per well) of appropriate concentration were added after an overnight incubation for each CHO cell line (90 μL of cell suspension).
# L3.6pl cells [2] = assay: Wound healing assay (cell migration); assay type: cell-based, human; conditions: for anti-migration ability relative to parent 44a (in words): dosed at 0.6 μM
# Protocol: A wound healing assay was employed to evaluate the anti-migration properties of compounds 44a-b, 46a-b, and 47a-b in L3.6p1 cells. This involved growing a monolayer of L3.6p1 cells and then scraping the monolayer with a sterile pipet tip to create a cell free zone in the middle of the well. The experiment was run in 96-well plate format. Wound healing was measured by time-course imaging of each well using a computer-controlled microscope with an x,y,z stage which allowed for reproducible imaging over time. Each drug was evaluated for its dose-dependent inhibition of cell migration. Each compound was evaluated at its own MTD in order to avoid cytotoxic effects which are well known to bias migration studies.^37a In addition, each compound was also tested at the MTD of 44a (Motu33) in order to directly compare the potency of these compounds at the same concentration.
# Taking pictures of each wound needed to be done under a 2.5× objective in order to view ˜95% of each well. […] This problem was alleviated through the use of the ImageJ software.^47 This software allowed for enhancing the contrast between areas which were occupied by cells versus areas devoid of cells. In this regard, the software was able to accurately define the edges of each boundary. These capabilities then allowed for accurate area calculations which are seen in Table 3.
# Anti-migratory properties were assayed in 96-well microtiter plates (Costar 3599, Corning, N.Y., USA). A stock suspension of L3.6p1 cells (5.5×10^5 cells/mL) was prepared. L3.6p1 cells (90 μL of stock/well) were plated and allowed to grow to a confluent monolayer (48 h). Each well was then scraped with a 1 μL sterile pipet tip, photographed with a Zeiss Stemi Microscope (2.5× objective) (time=0), and then allowed to incubate for an additional 48 h period (time=48 h). Over this 48 h period, the untreated control migrated to fill 50% of the original wound. At time zero, the respective drug solutions (10 μL) were added and cell migration monitored after 48 h incubation at 37° C. with 5% CO2. After drug exposure for 48 h, respective time=48 h photographs were taken by the Zeiss Stemi Microscope. These pictures (time=0 and time=48 h) were then compared and analyzed through the use of ImageJ software^47 by calculating the average area invaded by L3.6p1 cells.
# [3] = test system: human pancreatic cancer L3.6p1 cells; assay: Orthotopic mouse model, liver micrometastases; assay type: in vivo
# Protocol: In one embodiment, the cancer is breast cancer. In another embodiment, the cancer is pancreatic cancer. […] The control was saline solution. The respective drugs (44a and 45) were dosed at their respective maximum tolerated dose (MTD).
# [4] = test system: pancreatic tumor (L3.6p1 cells); assay: Mouse pancreatic tumor model, tumor size; assay type: in vivo; conditions: for tumor volume size: versus untreated control, preliminary data not shown
# Description: Further, the present inventors have found a dramatic increase in the therapeutic window available to these new agents relative to the parent compound 44a. These large carbocycles (e.g., the macrocyclic core) and carbocycle-alkyl groups (e.g., cyclopentadecyl-CH2— is preferred) represent a new N-substituent which imparts the unique properties of anti-migration activity and lower toxicity. Advantageously, the compounds described herein may be administered alone or in combination with known and/or new therapies (e.g., other chemotherapeutic agents or radiation) to help treat or prevent the spread of primary tumors and allow time for the intervention (e.g., other chemotherapeutic) to work on the primary tumor.
# Thus, this represents an exciting unexpected discovery that not only can compounds of the present invention reduce metastasis, they reduce the tumor itself.
# yeast cells = conditions: 60 μM; cited from earlier work
# [5] = test system: MDA-231 breast carcinoma cells; conditions: cited from earlier work
# MDA-MB-231 cells = conditions: cited from earlier work
# [6] = test system: original CHO-MG line and CHO; conditions: reported earlier (ref 2f); cited from earlier work
# [7] = 2 μM (MTD of the conjugate), 48 h
# [8] = Homo sapiens, 0.6 μM, 48 h, 250 μM AG
Compound,"IC50 (CHO-MG* cells; Cricetulus griseus, CHO-MG)","IC50 (CHO cells; Cricetulus griseus, CHO)","IC50 (L3.6pl cells [1]; Homo sapiens, L3.6pl)",L3.6pl MTD (L3.6pl cells [1]),anti-migration property (in words) (L3.6pl cells [2]),"% Cell Migration (L3.6pl cells [2]; 0.6 μM, 48 h, 250 μM AG)",% Cell Migration (L3.6pl cells [2]; [7]),inhibition at 0.6 µM (L3.6pl cells [2]; [8]),tumor volume size [4],MTD higher than 0.6 μM (MTD of 44a) (L3.6pl cells [1]; L3.6pl),anti-migration ability relative to parent 44a (in words) (L3.6pl cells [2]),other results
"NCCCCNCCCCNC1CCCCCCCCCCCCCC1 [Compound 46b, N^1-(4-Aminobutyl)-N^4-cyclopentadecylbutane-1,4-diamine]",5.18 µM,4.53 µM,2.82 µM,2.0 µM,have this anti-migration property,32.5 (±4.3) %,31.6 (±0.5) %,31.4%,,,,"inhibition at 2 µM (L3.6pl cells [2]; Homo sapiens, L3.6pl, 2 μM (MTD of the conjugate), 48 h): 33.4%"
"NCCCNCCCN1CCCCCCCCCCCCCC1 [Compound 44a, dihydromotuporamine C, reference compound]",2.96 µM,2.9 µM,0.99 µM,0.6 µM,,37.8 (±3.3) %,,20.3%,dramatic decreases in tumor volume size,,,"CHO-MG*/CHO IC50 ratio (CHO-MG* cells; measure of PTS selectivity): 1; degree of metastasis (liver micrometastases per slide) ([3]; dosed at MTD, control saline, FIG. 7): effective in reducing the degree of metastasis; growth of yeast cells (yeast cells): fully inhibit the growth; cytotoxicity (in words) [5]: highly cytotoxic; anti-invasive properties (in words) (MDA-MB-231 cells): good anti-invasive properties; IC50 ratio in the original CHO-MG line and CHO [6]: 1"
"NCCCNCCCNCC1CCCCCCCCCCCCCC1 [Compound 47a, N^1-(3-aminopropyl)-N^3-(cyclopentadecylmethyl)propane-1,3-diamine]",87.3 µM,82.9 µM,89.4 µM,80 µM,have this anti-migration property,29.2 (±3.2) %,,38.4%,dramatic decreases in tumor volume size,> 130 fold,highest inhibition; also recorded: dramatic increase in anti-migration ability; also recorded: significant improvement in anti-migration ability,"less toxic than the parent (44a) (L3.6pl cells [1]; relative to 44a): about 130 times; % Cell Migration (L3.6pl cells [2]; 80 μM (MTD of the conjugate), 48 h): 26.2 (±1.3) %; inhibition at 80 µM (L3.6pl cells [2]; Homo sapiens, L3.6pl, 80 μM (MTD of the conjugate), 48 h): 44.8%; tumor growth in vivo ([4]; mouse studies, preliminary): inhibit tumor growth in vivo"
"NCCCCNCCCCNCC1CCCCCCCCCCCCCC1 [Compound 47b, N^1-(4-aminobutyl)-N^4-(cyclopentadecylmethyl)butane-1,4-diamine]",45.5 µM,47.8 µM,48.7 µM,40 µM,,33.4 (±1.8) %,,29.6%,,> 60 fold,dramatic increase in anti-migration ability,"% Cell Migration (L3.6pl cells [2]; 40 μM (MTD of the conjugate), 48 h): 25.9 (±2.1) %; inhibition at 40 µM (L3.6pl cells [2]; Homo sapiens, L3.6pl, 40 μM (MTD of the conjugate), 48 h): 45.3%"
"NCCCNCCCNC1CCCCCCCCCCCCCC1 [Compound 46a, N(3-Aminopropyl)-N3-cyclopentadecylpropane-1,3-diamine]",,,,2.0 µM,have this anti-migration property,38.2 (±2.5) %,31.8 (±0.1) %,,,,,"IC50 (CHO-MG* cells): 5.95 µM; IC50 (CHO cells): 2.84 µM; IC50 (L3.6pl cells [1]): 2.81 µM; % Cell Migration Inhibition (L3.6pl cells [2]; 0.6 μM, 48 h, 250 μM AG): 19.3 (±1.3) %; % Cell Migration Inhibition (L3.6pl cells [2]; [7]): 32.9 (±0.1) %"
CCN(CCCNCCCN)Cc1c2ccccc2cc2ccccc12 [AntNEt33],,,,,,,,,,,,anti-metastatic properties in vivo ([3]; compared with dihydromotuporamine C): failed to mimic the anti-metastatic properties
